In patent US12624003B2, “Carboxylic acid containing indanyl compounds for the treatment of neurodegenerative diseases” (Celgene Corporation, priority 2020, dated 2026):

Molecular target: T1, S1P5 (Homo sapiens, UniProt Q9H228)
T1 construct: expressed in transfected cells; host or cells: CHO cells (membranes)
Assay: [35S]-GTPγS functional binding assay on CHO-S1P5 membranes
Assay type: biochemical
Settings: membranes of CHO cells expressing recombinant S1P5 receptors; measure of S1P5 agonism
Description: CHO cells expressing recombinant S1P5 receptors were cultured in 500 cm^2 culture trays and, once confluent, rinsed and detached with cell-lifting buffer (10 mM HEPES, 154 mM NaCl, 6.85 mM EDTA, pH 7.4). Cells were then pelleted by centrifugation, resuspended, and homogenized in membrane preparation buffer (10 mM HEPES and 10 mM EDTA, pH 7.4) using a Polytron PT 1200E homogenizer (Kinematica, Luzern, Switzerland). Cellular proteins were pelleted by centrifugation at 48,000×g at 4° C. for 30 minutes. The resulting supernatant was discarded, and the pellet was re-suspended again in membrane preparation buffer, homogenized for a second time, and then centrifuged again as described above. The final cellular protein pellet was suspended in ice cold resuspension buffer (10 mM HEPES and 0.1 mM EDTA, pH 7.4), divided into aliquots, and stored at −80° C. until use.
Functional binding assays for [^35S]-GTPγS were performed in 96-well non-binding surface plates with a final volume of 200 μL. The test compounds were serially diluted in DMSO and added to assay plates using a Tecan D300E digital printer with a total volume of 0.4 μL. The control sphingosine-1-phosphate (S1P) was prepared separately by preparing a 400 μM stock solution from a 100 nmol pellet of SIP in 10 mM Na2CO3 with 2% s-cyclodextrin. The serial dilution of S1P was done using complete assay buffer (20 mM HEPES, 10 mM MgCl2, 100 mM NaCl, 1 mM EDTA, 0.1% fatty acid free bovine serum albumin (BSA), and 30 μg/mL saponin, pH 7.4) and transferred to wells already containing 0.4 μL DMSO. All the wells were then loaded to a total volume of 40 μL of complete assay buffer, except the non-specific binding (NSB) wells. For NSB wells, 40 μL/well of 50 μM GTPγS (Sigma Aldrich, cat #G8634, St. Louis, MO) was added to wells containing 0.4 μL of DMSO. The assay was started by the addition of 120 μL/well of CHO-S1P receptor membrane solution containing 40 μg/mL of membrane protein, 16.67 μM guanosine diphosphate (GDP; Sigma Aldrich, cat #G7127, St. Louis, MO), and 2.5 mg/mL of WGA PVT SPA beads in complete buffer. Assay plates were then sealed and incubated at room temperature with gentle agitation for 30 minutes. Next, 40 μL/well of 1 nM of [^35S]-GTPγS (PerkinElmer, cat #NEG030X250UC, Waltham, MA) in basic assay buffer (20 mM HEPES, 10 mM MgCl2, 100 mM NaCl, and 1 mM EDTA, pH 7.4) was added to the assay plates to yield a final concentration of […] and the plates were further incubated for 40 minutes at room temperature with gentle agitation. The assay was terminated by centrifugation of the plates at 1000 rpm for 3 minutes using an Eppendorf 5810R centrifuge (Eppendorf, Hamburg, Germany) and G protein bound radioactivity was quantitated using a MicroBeta2 microplate scintillation counter (PerkinElmer, Waltham, MA). As G protein bound radioactivity directly correlates to receptor activation and coupling to the G protein, this assay is a measure of S1P5 agonism.

T1 sequence (Q9H228 whole entry, species assumed): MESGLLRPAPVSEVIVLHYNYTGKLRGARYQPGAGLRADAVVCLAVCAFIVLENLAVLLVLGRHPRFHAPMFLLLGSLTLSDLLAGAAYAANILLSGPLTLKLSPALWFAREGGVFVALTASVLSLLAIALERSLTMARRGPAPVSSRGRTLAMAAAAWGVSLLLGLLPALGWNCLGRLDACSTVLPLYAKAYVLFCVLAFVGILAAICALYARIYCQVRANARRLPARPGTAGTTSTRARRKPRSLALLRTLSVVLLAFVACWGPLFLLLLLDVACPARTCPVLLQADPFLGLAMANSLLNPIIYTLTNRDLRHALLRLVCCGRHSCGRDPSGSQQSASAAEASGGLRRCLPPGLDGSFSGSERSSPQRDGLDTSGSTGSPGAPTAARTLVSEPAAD

Row | EC50 [nM] | Compound
1 | ≤ 10 | CC(C)c1ccc(-c2ccc3c(c2)CCC3N2CCC(C(=O)O)CC2)cc1Cl (stereo not drawn) [Compound 33, 1-(5-(3-chloro-4-isopropylphenyl)-2,3-dihydro-1H-inden-1-yl)piperidine-4-carboxylic acid]
2 | ≤ 10 | O=C(O)[C@@H]1CCN(C2CCc3cc(C#Cc4cccc(F)c4)ccc32)C1 (single isomer, unassigned) [Compound 14b]
3 | 10 to 100 | O=C(O)C1CCN(C2CCc3cc(C#Cc4ccccc4F)ccc32)CC12CC2 (stereo not drawn) [Compound 11, 5-(5-((2-fluorophenyl)ethynyl)-2,3-dihydro-1H-inden-1-yl)-5-azaspiro[2.5]octane-8-carboxylic acid]
